The subject of assay [1] is MIA PaCa-2 (KRAS G12C) cells. Briefly: Cellular pERK HTRF assay. Type of assay: cell-based. As to conditions: Homo sapiens; MIA PaCa-2 cells, 4 hours, phospho-ERK 1/2 HTRF; read-out: G12C_pERK (KRAS_G12C pERK assay IC50). As to the method: MIA PaCa-2 (KRAS G12C; ATCC® CRL-1420), A427 (KRAS G12D; ATCC® HTB53), HPAF-II (KRAS G12D; ATCC® CRL-1997) and NCI-H838 (KRAS WT; ATCC® CRL-5844) cells are purchased from ATCC and maintained in RPMI 1640 media supplemented with 10% FBS (Gibco/Life Technologies). The cells are plated at 5000 cells per well (8 uL) into Greiner 384-well low volume, flat-bottom, tissue culture treated white plates and incubated overnight at 37° C. 5% CO2. The next morning, test compound stock solutions are diluted in media at 3× the final concentration, and 4 uL are added to the cells. The plate is mixed by gentle rotation for 30 seconds (250 rpm) at room temperature. The cells are incubated with the KRAS G12C and G12D compounds for 4 hours or 2 hours respectively at 37° C., 5% CO2.
4 uL of 4× lysis buffer with blocking reagent (1:25) (Cisbio) are added to each well and plates are rotated gently (300 rpm) for 30 minutes at room temperature. 4 uL per well of Cisbio anti Phospho-ERK 1/2 d2 is mixed with anti Phospho-ERK 1/2 Cryptate (1:1) are added to each well, mixed by rotation and incubated overnight in the dark at room temperature. Plates are read on the Pherastar plate reader at 665 nm and 620 nm wavelengths. IC50 determination is performed by fitting the curve of inhibitor percent inhibition versus the log of the inhibitor concentration using the GraphPad Prism 7 software.
For orientation: Time-resolved FRET reads energy transfer from a long-lived donor to a nearby acceptor.

Assay [2] concerns the target KRAS G12C (Homo sapiens, UniProt P01116, G12C). Briefly: GDP-GTP exchange assay (fluorescence based guanine nucleotide exchange, bodipy-GDP for GppNHp, SOS1). Type of assay: biochemical. Particulars: bodipy-loaded KRAS G12C, 2 hours pre-incubation with inhibitor, read-out: G12C_exchange (KRAS_G12C exchange assay IC50). As to the method:
The inhibitor potency of the exemplified compounds was determined in a fluorescence based guanine nucleotide exchange assay, which measures the exchange of bodipy-GDP (fluorescently labeled GDP) for GppNHp (Non-hydrolyzable GTP analog) to generate the active state of KRAS in the presence of SOS1 (guanine nucleotide exchange factor). Inhibitors were serially diluted in DMSO and a volume of 0.1 μL was transferred to the wells of a black low volume 384-well plate. 5 μL/well volume of bodipy-loaded KRAS G12C diluted to 5 nM in assay buffer (25 mM Hepes pH 7.5, 50 mM NaCl, 10 mM MgCl2 and 0.01% Brij-35) was added to the plate and pre-incubated with inhibitor for 2 hours at ambient temperature. Appropriate controls (enzyme with no inhibitor or with a G12C inhibitor (AMG-510)) were included on the plate. The exchange was initiated by the addition of a 5 μL/well volume containing 1 mM GppNHp and 300 nM SOS1 in assay buffer. The 10 μL/well reaction concentration of the bodipy-loaded KRAS G12C, GppNHp, and SOS1 were 5-25 nM, 500 uM, and 150 nM, respectively. The reaction plates were incubated at ambient temperature for 2 hours, a time estimated for complete GDP-GTP exchange in the absence of inhibitor. For the KRAS G12D and G12V mutants, similar guanine nucleotide exchange assays were used with 2.5 nM as final concentration for the bodipy loaded KRAS proteins and with 4 hours and 3 hours incubation after adding GppNHp-SOS1 mixture for G12D and G12V, respectively. A cyclic peptide described to selectively bind G12D mutant (Sakamoto et al., BBRC 484.3 (2017), 605-611) or internal compounds with confirmed binding were used as positive controls in the assay plates. Fluorescence intensities were measured on a PheraStar plate reader instrument (BMG Labtech) with excitation at 485 nm and emission at 520 nm.
Either GraphPad prism or XLfit was used to analyze the data. The IC50 values were derived by fitting the data to a four parameter logistic equation producing a sigmoidal dose-response curve with a variable Hill coefficient. Prism equation: Y=Bottom+(Top−Bottom)/(1+10^((Log IC50−X)*Hill slope)); XLfit equation: Y=(A+((B−A)/(1+((X/C)^D)))) where X is the logarithm of inhibitor concentration and Y is the response.

The term IC50 denotes the midpoint of a concentration-inhibition curve.

Sequence of KRAS G12C (P01116 1-188 isoform P01116-2 G12C): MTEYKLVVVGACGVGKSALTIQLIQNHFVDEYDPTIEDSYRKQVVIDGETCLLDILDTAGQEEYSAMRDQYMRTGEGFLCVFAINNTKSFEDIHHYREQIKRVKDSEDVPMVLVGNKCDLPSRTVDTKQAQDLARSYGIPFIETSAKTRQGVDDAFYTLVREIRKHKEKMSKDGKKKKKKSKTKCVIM

As to `C=CC(=O)N1CC(F)(Cn2c(=O)c(=O)n(-c3c(C(C)C)cccc3C(C)C)c3nc(-c4cc(O)cc5ccccc45)c(Cl)cc32)C1` [Example 14, 1-((1-acryloyl-3-fluoroazetidin-3-yl)methyl)-7-chloro-4-(2,6-diisopropylphenyl)-6-(3-hydroxynaphthalen-1-yl)-1,4-dihydropyrido[2,3-b]pyrazine-2,3-dione], the half-inhibitory concentration (IC50) in assay [1] and in assay [2] was at most 100 nM each time.

Regarding `[2H]C([2H])(n1c(=O)c(=O)n(-c2c(C)ccnc2C(C)C)c2nc(-c3cccc(Cl)c3Cl)c(Cl)cc21)C1(F)CN(C(=O)C=C)C1` [Example 51, 1-((1-acryloyl-3-fluoroazetidin-3-yl)methyl-d2)-7-chloro-6-(2,3-dichlorophenyl)-4-(2-isopropyl-4-methylpyridin-3-yl)-1,4-dihydropyrido[2,3-b]pyrazine-2,3-dione], the IC50 in assay [1] and in assay [2] was at most 100 nM throughout.

As for `C=C(F)C(=O)N1CC(F)(Cn2c(=O)c(=O)n(-c3c(C(C)C)cccc3C(C)C)c3nc(-c4c(O)cccc4F)c(Cl)cc32)C1` [Example 13, 7-chloro-4-(2,6-diisopropylphenyl)-1-((3-fluoro-1-(2-fluoroacryloyl)azetidin-3-yl)methyl)-6-(2-fluoro-6-hydroxyphenyl)-1,4-dihydropyrido[2,3-b]pyrazine-2,3-dione], the concentration for half-maximal inhibition (IC50) in assay [1] and in assay [2] was at most 100 nM in each case.

For `C=CC(=O)N1CC(F)(Cn2c(=O)c(=O)n(-c3c(C)ccnc3C(C)C)c3nc(-c4c(C)ccc5cn[nH]c45)c(Cl)cc32)C1` [Example 28, 1-((1-acryloyl-3-fluoroazetidin-3-yl)methyl)-7-chloro-4-(2-isopropyl-4-methylpyridin-3-yl)-6-(6-methyl-1H-indazol-7-yl)-1,4-dihydropyrido[2,3-b]pyrazine-2,3-dione], the IC50 in assay [1] and in assay [2] was at most 100 nM each time.

With `C=CC(=O)N1CC(F)(Cn2c(=O)c(=O)n(-c3c(C)ccnc3C(C)C)c3nc(-c4cccc5c(C)n[nH]c45)c(Cl)cc32)C1` [Example 27, 1-((1-acryloyl-3-fluoroazetidin-3-yl)methyl)-7-chloro-4-(2-isopropyl-4-methylpyridin-3-yl)-6-(3-methyl-1H-indazol-7-yl)-1,4-dihydropyrido[2,3-b]pyrazine-2,3-dione], the IC50 in assay [1] and in assay [2] was 100 to 1000 nM throughout.

Turning to `C=CC(=O)N1CC(F)(Cn2c(=O)c(=O)n(-c3c(C)ccnc3C(C)C)c3nc(-c4cccc(C)c4F)c(Cl)cc32)C1` [Example 34, 1-((1-acryloyl-3-fluoroazetidin-3-yl)methyl)-7-chloro-6-(2-fluoro-3-methylphenyl)-4-(2-isopropyl-4-methylpyridin-3-yl)-1,4-dihydropyrido[2,3-b]pyrazine-2,3-dione], the IC50 in assay [1] and in assay [2] was at most 100 nM in each case.

Regarding `C=CC(=O)N1CC(Cn2c(=O)c(=O)n(-c3c(C)ccnc3C(C)C)c3nc(-c4c(O)cccc4F)c(Cl)cc32)(OC)C1` [Example 38, 1-((1-acryloyl-3-methoxyazetidin-3-yl)methyl)-7-chloro-6-(2-fluoro-6-hydroxyphenyl)-4-(2-isopropyl-4-methylpyridin-3-yl)-1,4-dihydropyrido[2,3-b]pyrazine-2,3-dione], the IC50 in assay [1] and in assay [2] was 100 to 1000 nM each time.

As to `C=CC(=O)N1CC(Cn2c(=O)c(=O)n(-c3c(C)ccnc3C(C)C)c3nc(-c4c(N)cccc4F)c(Cl)cc32)(OC)C1` [Example 40, 1-((1-acryloyl-3-methoxyazetidin-3-yl)methyl)-6-(2-amino-6-fluorophenyl)-7-chloro-4-(2-isopropyl-4-methylpyridin-3-yl)-1,4-dihydropyrido[2,3-b]pyrazine-2,3-dione], the IC50 in assay [1] and in assay [2] was 100 to 1000 nM in each case.

For `C=CC(=O)N1CC(F)(Cn2c(=O)c(=O)n(-c3c(C)ccnc3C(C)C)c3nc(-c4ccccc4Cl)c(Cl)cc32)C1` [Example 36, 1-((1-acryloyl-3-fluoroazetidin-3-yl)methyl)-7-chloro-6-(2-chlorophenyl)-4-(2-isopropyl-4-methylpyridin-3-yl)-1,4-dihydropyrido[2,3-b]pyrazine-2,3-dione], the 50% inhibitory concentration (IC50) in assay [1] and in assay [2] was at most 100 nM each time.

`C=CC(=O)N1CC(F)(Cn2c(=O)c(=O)n(-c3c(C)ccnc3C(C)C)c3nc(-c4cccc(Cl)c4Cl)c(Cl)cc32)C1` [Example 35, 1-((1-acryloyl-3-fluoroazetidin-3-yl)methyl)-7-chloro-6-(2,3-dichlorophenyl)-4-(2-isopropyl-4-methylpyridin-3-yl)-1,4-dihydropyrido[2,3-b]pyrazine-2,3-dione]: the concentration for half-maximal inhibition (IC50) in assay [1] and in assay [2] was at most 100 nM in each case.

Consider `C=CC(=O)N1CC(O)(Cn2c(=O)c(=O)n(-c3c(C)ccnc3C(C)C)c3nc(-c4c(O)ccc(F)c4F)c(Cl)cc32)C1` [Example 45, 1-((1-acryloyl-3-hydroxyazetidin-3-yl)methyl)-7-chloro-6-(5,6-difluoro-2-hydroxyphenyl)-4-(2-isopropyl-4-methylpyridin-3-yl)-1,4-dihydropyrido[2,3-b]pyrazine-2,3-dione], for which the results for the 50% inhibitory concentration (IC50) in assay [1] and in assay [2] were 1000 to 5000 nM and at most 100 nM, respectively.

Consider `C=CC(=O)N1CC(F)(Cn2c(=O)c(=O)n(-c3c(C)ccnc3C(C)C)c3nc(-c4ccccc4C(F)(F)F)c(Cl)cc32)C1` [Example 37, 1-((1-acryloyl-3-fluoroazetidin-3-yl)methyl)-7-chloro-4-(2-isopropyl-4-methylpyridin-3-yl)-6-(2-(trifluoromethyl)phenyl)-1,4-dihydropyrido[2,3-b]pyrazine-2,3-dione], for which the results for the IC50 in assay [1] and in assay [2] were 100 to 1000 nM and at most 100 nM, respectively.

For `C=CC(=O)N1CC(O)(Cn2c(=O)c(=O)n(-c3c(C(C)C)cccc3C(C)C)c3nc(-c4ccccc4F)c(Cl)cc32)C1` [Example 7, 1-((1-acryloyl-3-hydroxy-azetidin-3-yl)methyl)-7-chloro-4-(2,6-diisopropylphenyl)-6-(2-fluorophenyl)-1,4-dihydropyrido[2,3-b]pyrazine-2,3-dione], the 50% inhibitory concentration (IC50) in assay [1] is 100 to 1000 nM; in assay [2] it was at most 100 nM.

In the case of `C=CC(=O)N1CC(F)(Cn2c(=O)c(=O)n(-c3c(C)ccnc3C(C)C)c3nc(-c4ccc(C)cc4F)c(Cl)cc32)C1` [Example 33, 1-((1-acryloyl-3-fluoroazetidin-3-yl)methyl)-7-chloro-6-(2-fluoro-4-methylphenyl)-4-(2-isopropyl-4-methylpyridin-3-yl)-1,4-dihydropyrido[2,3-b]pyrazine-2,3-dione], the IC50 in assay [1] and in assay [2] was at most 100 nM each time.

For `C=CC(=O)N1CC(Cn2c(=O)c(=O)n(-c3c(C)ccnc3C(C)C)c3nc(-c4c(O)ccc(F)c4F)c(Cl)cc32)(OC)C1` [Example 39, 1-((1-acryloyl-3-methoxyazetidin-3-yl)methyl)-7-chloro-6-(2,3-difluoro-6-hydroxyphenyl)-4-(2-isopropyl-4-methylpyridin-3-yl)-1,4-dihydropyrido[2,3-b]pyrazine-2,3-dione], the 50% inhibitory concentration (IC50) in assay [1] and in assay [2] was 100 to 1000 nM in each case.
